Assay results reported in PubChem BioAssay (NCI).
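Test compounds were applied to cells in 96-well plates for 48 hours at 5 doses. The concentration for full growth arrest is given as TGI.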

How the values were obtained:
Assay in all cases: growth of human tumour cells (NCI), 48 h
SN12C renal = test system: SN12C renal
NCI-H226 lung = test system: NCI-H226 lung
HOP-92 NSCLC = test system: HOP-92 NSCLC
SF-295 CNS = test system: SF-295 CNS
U251 CNS = test system: U251 CNS
EKVX NSCLC = test system: EKVX NSCLC
KM12 colon = test system: KM12 colon
SK-MEL-28 melanoma = test system: SK-MEL-28 melanoma
OVCAR-8 ovarian = test system: OVCAR-8 ovarian
HCT-15 colon = test system: HCT-15 colon

SMILES	TGI (SN12C renal)	TGI (NCI-H226 lung)	TGI (HOP-92 NSCLC)	TGI (SF-295 CNS)	TGI (U251 CNS)	TGI (EKVX NSCLC)	TGI (KM12 colon)	TGI (SK-MEL-28 melanoma)	TGI (OVCAR-8 ovarian)	TGI (HCT-15 colon)
COc1ccccc1N1CCN(CCCCNC(=O)c2ccc([N+](=O)[O-])o2)CC1	17.4 µM	29.4 µM	40.4 µM	25.7 µM	24.6 µM	34.2 µM	20.3 µM	> 100 µM	45.6 µM	17.5 µM
CCOC(=O)c1c(N2CCCC2)[nH]c(=O)c(C(c2c(O)c(C(=O)OCC)c(N3CCCC3)[nH]c2=O)C(C)C)c1O	> 100 µM	> 100 µM	> 100 µM	> 100 µM	> 100 µM	> 100 µM	> 100 µM	> 100 µM	> 100 µM	> 100 µM
Oc1cc(O)c2c(c1)O[C@H](c1ccc(O)c(O)c1)[C@@H](O)C2	> 100 µM	> 100 µM	> 100 µM	> 100 µM	> 100 µM	> 100 µM	> 100 µM	> 100 µM	> 100 µM	> 100 µM
Cc1cccc2c(N)c3cccc(C(=O)NCC[N+](C)(C)Cc4ccc([N+](=O)[O-])n4C)c3nc12	> 57.3 µM	53.3 µM	> 100 µM	> 89.3 µM	63.4 µM	> 100 µM	63.4 µM	> 100 µM	64.1 µM	> 78 µM
O=C(Nc1ccccc1)c1cc2ccccc2c(N=Nc2cccc([N+](=O)[O-])c2)c1O	> 100 µM	> 100 µM	> 100 µM	> 100 µM	> 100 µM	> 100 µM	> 100 µM	> 100 µM	> 100 µM	> 100 µM
O=Cc1c2c(cc3c1CC1(C3)Cc3cc4c(c(C=O)c3C1)CCCC4)CCCC2	> 31.6 µM	> 31.6 µM	> 31.6 µM	> 31.6 µM	> 31.6 µM	> 31.6 µM	> 31.6 µM	> 100 µM	> 31.6 µM	> 31.6 µM
O=[N+]([O-])c1cc(C2(N3CCCCC3)CCCCC2)sc1Br	21.8 µM	28.1 µM	21.7 µM	30.1 µM	19.1 µM	24.6 µM	20.2 µM	23.9 µM	24 µM	17.2 µM
Cc1ccc(Nc2c3c(c(C#N)c4nc5ccccc5n24)CCCC3)cc1	31.7 µM	62 µM	76.2 µM	44.1 µM	> 100 µM	> 100 µM	> 100 µM	55.6 µM	> 100 µM	82.4 µM
CC(=O)Nc1ccc(NC(=O)CC(=O)Nc2ccc(NC(C)=O)cc2)cc1	> 100 µM	> 100 µM	> 100 µM	> 100 µM	> 100 µM	> 100 µM	> 100 µM	> 100 µM	> 100 µM	61.9 µM
O=S(=O)(O)c1ccc2c(N=Nc3cccc4ccccc34)c(O)ccc2c1	> 100 µM	> 100 µM	> 100 µM	> 100 µM	> 100 µM	> 100 µM	> 100 µM	> 100 µM	> 100 µM	> 100 µM
O=C(O)c1cc(N=Nc2ccc([N+](=O)[O-])cc2)ccc1O	> 100 µM	79.4 µM	56.9 µM	83.7 µM	68.4 µM	> 100 µM	> 100 µM	> 100 µM	> 100 µM	> 100 µM
CC(C)C[S+]1C2=C([O-])CC(C)(C)CC2=Nc2ccccc21 (stereo not given)	> 100 µM	> 100 µM	> 100 µM	> 100 µM	> 100 µM	> 100 µM	> 100 µM	> 100 µM	> 100 µM	> 100 µM
CN(C(=O)[C@H](NC(=O)OCc1ccccc1)c1ccccc1)C1CCCCC1N1CCCC1 (stereo not given in full)	> 100 µM	78 µM	> 100 µM	> 100 µM	> 100 µM	> 100 µM	> 100 µM	> 100 µM	> 100 µM	> 100 µM
COc1ccc2[nH]c3cc4c(=O)c5cc(OC)ccc5[nH]c4cc3c(=O)c2c1	> 100 µM	> 100 µM	> 100 µM	> 100 µM	> 100 µM	> 100 µM	> 100 µM	> 100 µM	> 100 µM	> 100 µM
c1ccc(-c2cnc(SC(c3ccccc3)c3ccccc3)[nH]2)cc1	65.4 µM	67.3 µM	54 µM	> 100 µM	> 100 µM	60 µM	> 100 µM	> 100 µM	> 100 µM	38.8 µM
CC(=N/NC(=S)N1CCCCCC1)/C(C)=N\NC(=S)N1CCCCCC1	3.99 µM	9.23 µM	2.77 µM	12.5 µM	5.73 µM	10.6 µM	17.9 µM	3.56 µM	> 100 µM	13.6 µM
